Tests used:
Type in all cases: in vivo
[1] = tested on: Diabrotica virgifera virgifera Leconte, 2nd instar western corn rootworm (WCR); assay: Western corn rootworm (WCR) soil test; parameters: key: 0 = no effect; 1 = 10-25% kill; 2 = 26-35% kill; 3 = 36-45% kill; 4 = 46-55% kill; 5 = 56-65% kill; 6 = 66-75% kill; 7 = 76-85% kill; 8 = 86-99% kill; 9 = 100% kill
Description: Test solutions are prepared by dissolving the test compound in a 35% acetone in water mixture to give a concentration of 10,000 ppm. Subsequent dilutions are made with water as needed. Diabrotica virgifera virgifera Leconte, 2nd Instar Western Corn Rootworm (WCR) One cc of fine talc is placed in a 30 mL wide-mouth screw-top glass jar. One mL of the appropriate acetone test solution is pipetted onto the talc so as to provide 1.25 mg of active ingredient per jar. The jars are set under a gentle air flow until the acetone is evaporated. The dried talc is loosened, 1 cc of millet seed is added to serve as food for the insects and 25 mL of moist soil is added to each jar. The jar is capped and the contents thoroughly mixed mechanically. Following this, ten 2nd instar rootworms are added to each jar and the jars are loosely capped to allow air exchange for the larvae. The treatments are held for 5 days when mortality counts are made. Missing larvae are presumed dead, since they decompose rapidly and cannot be found. The concentrations of active ingredient used in this test correspond approximately to 50 kg/ha. [table]

[2] = tested on: Spodoptera eridania, 2nd instar larvae, southern armyworm (SAW); assay: Southern armyworm (SAW) leaf dip test; parameters: key: 0 = no effect; 1 = 10-25% kill; 2 = 26-35% kill; 3 = 36-45% kill; 4 = 46-55% kill; 5 = 56-65% kill; 6 = 66-75% kill; 7 = 76-85% kill; 8 = 86-99% kill; 9 = 100% kill
Description: (§1) Test solutions are prepared by dissolving the test compound in a 35% acetone in water mixture to give a concentration of 10,000 ppm. Subsequent dilutions are made with water as needed.
Spodoptera eridania, 2nd Instar Larvae, Southern Armyworm (SAW)
A Sieva lima bean leaf expanded to 7-8 cm in length is dipped in the test solution with agitation for 3 seconds and allowed to dry in a hood. The leaf is then placed in a 100×10 mm petri dish containing a damp filter paper on the bottom and ten 2nd instar caterpillars. At 5 days, observations are made of mortality, reduced feeding, or any interference with normal molting.

[3] = tested on: C. elegans (Bristol strain); assay: Evaluation of test compounds against C. elegans (motility, 96-well plate); parameters: key: 9=complete kill in 4 hours; 8=complete kill in 24 hours; 7=markedly reduced motility in approximately 95% of worms in 24 hours; 0=normal motility, same as controls; conditions: motility at 4 and 24 hours
Description: Evaluation of Test Compounds Against C. elegans Cultures of C. elegans (Bristol strain from J. Lewis) are maintained on E. coli lawns on NG Agar Plates at 20° C. New cultures are established weekly. Nematodes for testing are washed from cultures using Na buffer. Compounds are dissolved in 80% acetone. The test material is micropipetted (25 μl) into a single well of a 96-well sterile tissue culture plate and the solvent allowed to evaporate. A freshly prepared volume (50 μl) of C. elegans in Na buffer is micropipetted into each treated well and several control wells per plate. Plates are incubated at 20° C. Observations for efficacy are made under a dissecting microscope at 4 and 24 hours post-immersion. Immediately prior to reading the plate, it is gently tapped to stimulate the movement of the worms. Activity is judged subjectively, but semi-quantitatively, based on the drug effects on motility of the adults and larvae.

[4] = tested on: Aphis gossypii, cotton aphid (CA); assay: Cotton aphid (CA) cotyledon dip test; parameters: key: 0 = no effect; 1 = 10-25% kill; 2 = 26-35% kill; 3 = 36-45% kill; 4 = 46-55% kill; 5 = 56-65% kill; 6 = 66-75% kill; 7 = 76-85% kill; 8 = 86-99% kill; 9 = 100% kill; conditions: mortality after 5 days
Description: Test solutions are prepared by dissolving the test compound in a 35% acetone in water mixture to give a concentration of 10,000 ppm. Subsequent dilutions are made with water as needed. Aphis gossypii, Cotton Aphid (CA) Cotton plants at the cotyledon stage are selected and cut back to one plant per pot. A heavily infested leaf is taken from the main colony and placed on top of each cotyledon. The aphids are allowed to transfer to the host plant overnight. At the time of test treatment, the leaf used to transfer the aphids is removed and discarded. The cotyledons are dipped in the test solution and allowed to dry. After 5 days, mortality counts are made. [table]

[5] = tested on: M. incognita (Root Knot Nematode) larvae; assay: Evaluation of test compounds against M. incognita larvae in microtiter plate wells (movement score); conditions: larvae scored for movement after 20-24 hours; further: key: A score of '9' indicates inactive worms with a straight, sticklike morphology; A score of '8' indicates inactive worms with a limp, curled or curved morphology; A score of '7' indicates dead/paralyzed worms after 72 hours
Description: Evaluation of Test Compounds Against M. incognita (Root Knot Nematode)
Newly emerged M. incognita larvae are suspended in S Medium (buffered salt solution) to a concentration of 50-65 worms per 50 μl. 50 μl of the worm suspension are pipetted into microtiter plate wells containing the test compounds. The plates are then covered with plactic plate sealers to reduce loss of volume by evaporation. After 20-24 hours of incubation, the larvae are scored for movement. Wells containing obviously dead/paralyzed larvae are scored as positive. […] A score of “7” indicates dead/paralyzed worms after […].

[6] = tested on: Tetranychus urticae (OP-resistant strain), 2-spotted spider mite (TSM); assay: 2-spotted spider mite (TSM) plant dip test; parameters: key: 0 = no effect; 1 = 10-25% kill; 2 = 26-35% kill; 3 = 36-45% kill; 4 = 46-55% kill; 5 = 56-65% kill; 6 = 66-75% kill; 7 = 76-85% kill; 8 = 86-99% kill; 9 = 100% kill; conditions: mortality after 2 days
Description: as §1
Tetranychus urticae (OP-resistant strain), 2-spotted Spider Mite (TSM)
Sieva lima bean plants with primary leaves expanded to 7-8 cm are selected and cut back to one plant per pot. A small piece is cut from an infested leaf taken from the main colony and placed on each leaf of the test plants. This is done about 2 hours before treatment to allow the mites to move over to the test plant to lay eggs. The size of the cut, infested leaf is varied to obtain about 100 mites per leaf. At the time of test treatment, the piece of leaf used to transfer the mites is removed and discarded. The newly-infested plants are dipped in the test solution for 3 seconds with agitation and set in the hood to dry. After 2 days, one leaf is removed and mortality counts are made.

Row | Compound | WCR (50 ppm) rating [1] | SAW (300 ppm) rating [2] | Rating Against C. elegans (150 ppm) [3] | CA (300 ppm) rating [4] | M. incognita (150 ppm) score [5] | TSM (300 ppm) rating [6]
1 | O=C(O)CSC(C[N+](=O)[O-])c1ccc(Cl)cc1 (stereo not shown) [Example 78] | 0 | 0 | 7 | 0 | 9 | 0
2 | COc1ccc(C(C[N+](=O)[O-])SCC(=O)O)cc1 (stereo not shown) [Example 69] | 0 | 0 | 9 | 0 | 9 | 0
3 | COC(=O)CSC(C[N+](=O)[O-])c1ccc(OC)cc1OC (stereo not shown) [Example 79] |  |  | 7 |  | 0 | 
4 | O=C(O)CSC(C[N+](=O)[O-])c1ccc(F)cc1 (stereo not shown) [Example 63] | 0 | 0 | 9 | 0 | 9 | 0
5 | CC(C(SCC(=O)O)c1ccccc1)[N+](=O)[O-] (stereo not shown) [Example 161] | 4 (4 = 46-55% kill) | 0 |  | 0 |  | 0
6 | COc1cc(OC)cc(C(C[N+](=O)[O-])SCC(O)CO)c1 (stereo not shown) [Example 87] |  |  | 0 |  | 0 | 
7 | O=C(O)CSC(C[N+](=O)[O-])c1ccc2c(c1)OCO2 (stereo not shown) [Example 64] | 0 | 0 | 9 | 0 | 9 | 9 (9 = 100% kill)
8 | O=[N+]([O-])CC(SCC(O)CO)c1ccccc1 (stereo not shown) [Example 85] |  |  | 7 |  | 9 | 
9 | Cc1ccc(C(C[N+](=O)[O-])SCC(=O)O)cc1 (stereo not shown) [Example 65] | 9 (9 = 100% kill) | 0 | 9 | 0 | 9 | 0
10 | COC(=O)CSC(C[N+](=O)[O-])c1ccc(OC)c(OC)c1 (stereo not shown) [Example 86] |  |  | 0 |  | 0 | 
11 | CC(C)OC(=O)CSC(C[N+](=O)[O-])c1ccc(F)c(F)c1 (stereo not shown) [Example 155] | 0 | 0 |  | 0 |  | 3 (3 = 36-45% kill)
12 | COc1cccc(C(C[N+](=O)[O-])SCC(=O)O)c1 (stereo not shown) [Example 68] | 3 (3 = 36-45% kill) | 0 | 8 | 0 | 9 | 0
13 | CCCCOC(=O)CSC(c1ccccc1)C(C)[N+](=O)[O-] (stereo not shown) [Example 162] | 6 (6 = 66-75% kill) | 0 |  | 0 |  | 0
14 | C=CCSC(C[N+](=O)[O-])c1ccc(Cl)cc1 (stereo not shown) [Example 77] | 0 | 0 | 0 |  | 0 | 3 (3 = 36-45% kill)
15 | O=[N+]([O-])CC(SCc1ccco1)c1ccc2c(c1)OCO2 (stereo not shown) [Example 159] | 0 | 0 |  | 0 |  | 0
16 | CC(C)c1ccc(C(C[N+](=O)[O-])SCC(=O)O)cc1 (stereo not shown) [Example 66] | 8 (8 = 86-99% kill) | 0 | 9 | 0 | 9 | 0
17 | CCCCC(CC)COC(=O)CSC(C[N+](=O)[O-])c1ccc(Cl)cc1 (stereo not shown) [Example 74] | 0 | 0 | 0 | 0 | 0 | 0
18 | COc1ccc(C(C[N+](=O)[O-])SCc2ccccc2)c(OC)c1 (stereo not shown) [Example 81] |  |  | 7 |  | 0 | 
19 | COc1ccc(C(C[N+](=O)[O-])SCC(N)C(=O)O)c(OC)c1 (stereo not shown) [Example 84] |  |  | 9 |  | 0 | 
20 | CCOC(=O)CSC(C[N+](=O)[O-])c1ccc(F)c(F)c1 (stereo not shown) [Example 153] | 0 | 0 |  | 0 |  | 0
21 | COC(=O)CSC(c1ccccc1)C(C)[N+](=O)[O-] (stereo not shown) [Example 150] | 6 (6 = 66-75% kill) | 0 |  | 0 |  | 0
22 | CCCOC(=O)CSC(C[N+](=O)[O-])c1ccc(F)c(F)c1 (stereo not shown) [Example 154] | 0 | 0 |  | 0 |  | 0
23 | COc1ccc(C(C[N+](=O)[O-])SCC(=O)N2CCOCC2)c(OC)c1 (stereo not shown) [Example 80] |  |  | 7 |  | 0 | 
24 | CCOC(=O)CSC(c1ccccc1)C(C)[N+](=O)[O-] (stereo not shown) [Example 151] | 0 | 0 |  | 0 |  | 0
25 | NC(CSC(C[N+](=O)[O-])c1ccccc1)C(=O)O (stereo not shown) [Example 83] |  |  | 9 |  | 9 | 
26 | O=[N+]([O-])CC(SCc1ccco1)c1ccccc1 (stereo not shown) [Example 156] | 0 | 0 |  | 0 |  | 0
27 | COC(=O)CSC(C[N+](=O)[O-])c1ccc(F)c(F)c1 (stereo not shown) [Example 152] | 7 (7 = 76-85% kill) | 0 |  | 0 |  | 0

Source: US6358883B1, “Pesticidal and parasiticidal use of 1-aryl-1-(substituted thio, sulfinyl and sulfonyl)-2-nitroethane compounds” (American Cyanamid Company, priority 1998, dated 2002)
